Measured values as given in US20260217656A1, “Compounds Affecting KRAS” (UNIVERSITAT DE BARCELONA, priority 2022, published 2026).
Entries after “also recorded” stand apart in the source; their conditions may differ.

What was measured:
[1] = system: ERK and AKT in hTERT-RPE cells; experiment: Western blot of AKT and ERK activation in serum-starved hTERT-RPE cells; assay type: cell-based, human; conditions: 100 μM
Text: DLD-1 (KRASWT/G13D) (clone V15, #HD PAR-086) colorectal adenocarcinoma cell line and DLD-1 knockout of mutant KRAS allele, DLD-1 KO (KRASWT/−) (clone DWT7, #HD105-002), were obtained from Horizon Discovery Ltd. (Cambridge, UK). hTERT-RPE (KRASWT/WT) immortalized retinal pigment epithelial human cell line was obtained from the […] (ATCC). DLD-1 KO cells stably expressing HA-KRAS G12V were previously generated in our laboratory (Cabot et al., 2021). All cells were grown in DMEM-HAM s F12 (1:1) supplemented with 10% foetal bovine serum (Biological Industries, Israel), penicillin, streptomycin, and nonessential amino acids. […]
For analysis of RAS signalling, cells were lysed in a buffer containing 67 mM Tris-HCl pH 6.8 and 2% SDS and then the samples were heated at 97° C. for 15 minutes. Protein concentration of the lysates was assessed using the Lowry method. […]
Comparison of Ras signaling between DLD-1, DLD-1-KO and hTERT-RPE cells treated with P14B since important differences were observed between the viability of cells treated with P14B depending on their expression or lack of expression of oncogenic KRAS, we further studied whether these discrepancies were reflected also in KRAS downstream signaling. Serum-starved cells (0.1% FCS) were treated with P14B (100 μM) and activation of AKT and ERK was evaluated by WB. […]

[2] = system: hTERT-RPE cells; experiment: MTS cell viability assay, hTERT-RPE; assay type: cell-based, human; conditions: non-transformed hTERT-RPE cells, at approximately 80 μM
Text: (§1) DLD-1 (KRASWT/G13D) (clone V15, #HD PAR-086) colorectal adenocarcinoma cell line and DLD-1 knockout of mutant KRAS allele, DLD-1 KO (KRASWT/−) (clone DWT7, #HD105-002), were obtained from Horizon Discovery Ltd. (Cambridge, UK). hTERT-RPE (KRASWT/WT) immortalized retinal pigment epithelial human cell line was obtained from the […] (ATCC). DLD-1 KO cells stably expressing HA-KRAS G12V were previously generated in our laboratory (Cabot et al., 2021). All cells were grown in DMEM-HAM s F12 (1:1) supplemented with 10% foetal bovine serum (Biological Industries, Israel), penicillin, streptomycin, and nonessential amino acids. Cells were tested once per month for mycoplasma contamination.
10,000 cells in 50 µL of 10% FBS-containing medium, were cultured for 24 hours and then treated with the compounds (50 μL final volume) for 48 h hours in each well of a 96-well plate (100 μL final volume). MTS viability assay (CellTiter 96® Aqueous One Solution Cell Proliferation Assay, Promega G3580) was assessed following the company conditions. The absorbance of each well was measured with a multimode plate reader (Spark, Tecan) at 490 nm. The percentage of cell viability was calculated by dividing the absorbance of each well by the average absorbance of the control wells. […]

[3] = system: Ras effectors ERK and AKT in DLD-1 cells; experiment: Western blot of downstream RAS signaling (P-ERK, P-AKT, P-MEK) in serum-starved DLD-1 cells; assay type: cell-based, human
Text: as §1
Cells were seeded in a media containing 10% FBS for 24 hours and then they were serum starved (0.1% FBS) for the next 24 hours. Afterwards, they were incubated with the different compounds during the times specified in each figure. When indicated, also in order to activate downstream KRAS cell signalling, treatment for 10 minutes with EGF (50 ng/mL) (Sigma-Aldrich) was performed.
Proteins were resolved by SDS-PAGE, transferred onto PVDF membranes (Immobilon-P, Millipore) and Western blot was performed as previously described (Cabot et al, Oncogene 2021). The following primary antibodies were used: anti-c-RAF (BD Transduction 610151, 1:500); anti-phospho-c-RAF S338 (Cell Signaling 9427, 1:500); anti-AKT (Cell Signaling 9272, 1:1000); anti-phospho-AKT T308 (Cell Signaling 4056, 1:1000); anti-phospho-MEK1/2 S221 (Cell Signalling […]); anti-p44/42 MAPK (ERK1/2) (Cell Signaling 9102, 1:2000); anti-phospho-p44/42 MAPK(ERK1/2) T202/Y204 (Cell Signaling 4370, 1:2000); anti-HA (Sigma-Aldrich H6908, 1:1000); anti-cleaved-caspase-3 (Asp175) (Cell Signaling 9661, 1:1000); HRP-coupled secondary antibodies used: goat anti-rabbit (BioRad 170-6515, 1:3000) or goat anti-mouse (BioRad 170 6516, 1:3000).
For analysis of RAS signalling, cells were lysed in a buffer containing 67 mM Tris-HCl pH 6.8 and 2% SDS and then the samples were heated at 97° C. for 15 minutes. Protein concentration of the lysates was assessed using the Lowry method. An aliquot of […] of protein per sample was loaded onto the gels.
We first analyzed the effect of P14 on the activation of downstream RAS signaling pathways (RAF/MEK/ERK and PI3K/AKT) in DLD-1 cells (CRC cells carrying one oncogenic KRAS allele). To this end, DLD-1 serum-starved cells (0.1% FCS) were treated with P14 (100 μM) at different times, and activation of AKT and ERK was evaluated by Western blot. […] As a 3-hour treatment was associated with major effects, we chose this duration for the subsequent experiments with the other compounds. Next, DLD-1 serum-starved cells were treated with P14A-P14C at 100 μM for 3 hours and activation of AKT and ERK was assessed as above. […] The kinetics of RAS downstream signaling was analyzed in P14B-treated cells compared to 10% FBS serum.

[4] = molecular target: T1, HA-KRAS-G12V interaction with BRAF, C-RAF/P-C-RAF, ARAF (Homo sapiens, UniProt P01116, G12V); experiment: Co-immunoprecipitation of HA-KRASG12V with RAF family members; assay type: cell-based; conditions: 10 min treatment, 100 μM
T1 construct: expressed in transfected cells; host or cells: DLD-1 KO (KRAS WT/-) clone DWT7 cells stably expressing HA-KRAS G12V
Procedure: DLD-1 KO cells stably expressing HA-KRAS G12V were serum starved for the next 24 hours before treatment with the compounds for the times indicated. Next, an IP with anti-HA antibody crosslinked to agarose beads (clone HA-7, Sigma-Aldrich A20956) was performed as previously described (Cabot et al, Oncogene 2021).
We assessed the possibility that P14B favors RAS-effector binding and consequently increases downstream RAS signaling. To this end, co-immunoprecipitation experiments were carried out to analyze the interaction of KRAS with different RAF family members upon P14B treatment. The interaction was analyzed after 10 min of P14B treatment since P—C-RAF and P-MEK were observed after 15 min (FIG. 3C). DLD-1 cells stably expressing HA-KRAS-G12V were serum-starved and then treated for 10 min with either EGF or P14B.

[5] = DLD-1 serum-starved cells, 100 μM, 3 hours
[6] = DLD-1 starved cells, time course 15 min to 6 hours

Question: How did the “AKT and ERK phosphorylation” value [1] turn out when `COc1ccc(C(c2c(C)n[nH]c2O)c2c(C)n[nH]c2O)cc1Oc1ccc([N+](=O)[O-])cc1` [Example P14B] was run?
Answer: no significant increase

Question: And the cell viability [2]?
Answer: not affected

Question: What about the “AKT and ERK phosphorylation” value ([3]; DLD-1 serum-starved cells (0.1% FCS), 100 μM) of the same compound?
Answer: dramatically increased; also recorded: increases endogenous downstream RAS signaling

Question: And the “activation of AKT and ERK” value [3, 5]?
Answer: activated AKT and ERK kinases; also recorded: increase AKT and/or ERK signalling

Question: And the “relative capacity to activate Ras effectors ERK and AKT among the compounds” value [3, 5]?
Answer: most efficient; also recorded: greatest capacity to activate Ras signaling; also recorded: highest activation of both Ras effectors

Question: And the “duration of ERK phosphorylation compared with 10% FBS” value [3, 6]?
Answer: maintained for a longer time; also recorded: more sustained

Question: And the “onset of ERK and MEK activation compared with 10% FBS” value [3, 6]?
Answer: clearly delayed

Question: And the KRAS-ARAF binding [4]?
Answer: No differences

Question: What about the “P-C-RAF co-immunoprecipitated with KRAS” value ([4]; serum-starved cells) of the same compound?
Answer: increased the levels of P—C-RAF co-immunoprecipitated with KRAS

Question: And the KRAS-BRAF interaction ([4]; with respect to non-treated cells)?
Answer: increase in the KRAS-BRAF interaction
